From US7625875B2 (priority 2002, dated 2009)
Read-outs that look alike come from different tables or passages of the source. Marks after values point to notes of the source that are not given here. Starred links: 1 amine or outer side, 2 acyl side, 3 side chain; linkers in the order of their positions; H or OH if unused. Positions of bridges follow the written chain, without caps; N, C: chain ends. Non-standard residues stand in square brackets, D forms with d. Residues, ends and D or L forms follow the SMILES beside them. Chains are numbered I, II in the order given. Actinocin(9to1) = Cc1c2oc3c(C)ccc(C(=O)[*:1])c3nc-2c(C(=O)[*:2])c(N)c1=O; NMeV = CN[C@H](C(=O)O)C(C)C; Sar = CNCC(=O)O

Experiments:
human DNA polymerase γ = target: T1, human DNA polymerase γ (Homo sapiens, UniProt P54098); experiment: biochemical
T1 sequence (P54098 1-1239): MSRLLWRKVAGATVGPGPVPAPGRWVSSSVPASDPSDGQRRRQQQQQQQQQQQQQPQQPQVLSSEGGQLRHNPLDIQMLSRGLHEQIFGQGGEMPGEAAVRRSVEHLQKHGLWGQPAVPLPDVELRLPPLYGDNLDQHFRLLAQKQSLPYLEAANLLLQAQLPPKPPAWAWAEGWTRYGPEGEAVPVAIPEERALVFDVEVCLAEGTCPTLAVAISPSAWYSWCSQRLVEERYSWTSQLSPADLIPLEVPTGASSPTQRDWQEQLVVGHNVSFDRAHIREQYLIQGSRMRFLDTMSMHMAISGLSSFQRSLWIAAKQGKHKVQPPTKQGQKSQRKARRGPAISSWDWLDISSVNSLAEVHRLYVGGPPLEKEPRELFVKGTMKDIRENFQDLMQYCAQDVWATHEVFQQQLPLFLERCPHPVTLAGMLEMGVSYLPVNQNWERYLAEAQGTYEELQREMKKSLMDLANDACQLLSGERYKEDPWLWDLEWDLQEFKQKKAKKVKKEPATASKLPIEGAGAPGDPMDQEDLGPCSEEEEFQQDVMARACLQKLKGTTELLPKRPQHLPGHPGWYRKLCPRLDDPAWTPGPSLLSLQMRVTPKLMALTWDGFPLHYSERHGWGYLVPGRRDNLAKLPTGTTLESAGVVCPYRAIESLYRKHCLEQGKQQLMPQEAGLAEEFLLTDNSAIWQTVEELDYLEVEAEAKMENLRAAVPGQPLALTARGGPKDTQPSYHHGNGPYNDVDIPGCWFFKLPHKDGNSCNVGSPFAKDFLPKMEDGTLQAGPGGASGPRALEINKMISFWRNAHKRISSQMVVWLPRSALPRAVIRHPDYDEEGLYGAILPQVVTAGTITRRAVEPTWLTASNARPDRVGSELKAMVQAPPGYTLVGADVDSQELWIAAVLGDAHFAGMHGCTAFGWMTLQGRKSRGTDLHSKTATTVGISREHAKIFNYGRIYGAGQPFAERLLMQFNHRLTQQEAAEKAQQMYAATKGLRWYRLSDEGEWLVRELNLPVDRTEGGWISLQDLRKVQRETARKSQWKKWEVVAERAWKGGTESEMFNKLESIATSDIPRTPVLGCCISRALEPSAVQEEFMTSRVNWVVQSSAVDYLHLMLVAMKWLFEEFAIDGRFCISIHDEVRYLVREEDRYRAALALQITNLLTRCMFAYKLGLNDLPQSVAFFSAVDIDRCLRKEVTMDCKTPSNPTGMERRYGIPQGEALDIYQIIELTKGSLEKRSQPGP

human DNA polymerase α = human DNA polymerase α (Homo sapiens, UniProt P09884); experiment: Inhibition of human DNA polymerase α; type: biochemical
human DNA polymerase β = human DNA polymerase β (Homo sapiens, UniProt P06746); experiment: Inhibition of human DNA polymerase β; type: biochemical
HepG2 cells [1] = experiment: Incorporation of drug into cellular RNA and DNA
[2] = system: HepG2 human hepatoma cell line; experiment: Cytotoxicity (cell proliferation) assay, HepG2; conditions: rapid cell division; listed as RBV
HCV = conditions: ribavirin alone; cited from earlier work
[3] = system: BVDV (strain I-N-dIns), noncytopathic; type: cell-based, bovine viral diarrhea virus; conditions: titrated from 0 to 2,000 IU per ml
S405T mutant BVDV = type: cell-based, bovine viral diarrhea virus; conditions: more sensitive
[4] = system: BVDV New York-1 (NY-1) strain; experiment: MDBK cells persistently infected with BVDV strain New York-1, virus titer; type: cell-based, bovine viral diarrhea virus; conditions: 200 IU/ml alone
BVDV [5] = type: cell-based, bovine viral diarrhea virus
REO-1 = experiment: microbe, parasite or virus in culture; type: cell-based, double-stranded RNA Reovirus; conditions: read-out: REO
[6] = Exposure of chimpanzees to mCyd, serum HPLC; conditions: after val-mCyd; lower limit of quantification 0.4 μM (100 ng/mL)
BVDV [7] = experiment: Exploratory cell culture studies of mUrd, antiviral efficacy against BVDV; type: cell-based, bovine viral diarrhea virus; conditions: less potent than mCyd
[8] = system: MT-4 human T-lymphocyte cells
Sb-1 = experiment: organism not typed; type: cell-based, Sabin type 1 poliomyelitis virus; conditions: read-out: Sb-1
DENV 2 = experiment: microbe, parasite or virus in culture; type: cell-based, dengue virus; conditions: read-out: DENV 2
WNV = experiment: microbe, parasite or virus in culture; type: cell-based, West Nile virus; conditions: read-out: WNV
CVB-2 = experiment: organism not typed; type: cell-based, Coxsackie B-2 virus; conditions: read-out: CVB-2
[9] = system: wide spectrum of other viruses; experiment: Exploratory cell culture studies of mUrd, other viruses; type: cell-based
YFV = type: cell-based, yellow fever virus; conditions: Tables 30b, 30k-30o
BVDV [10] = type: cell-based, bovine viral diarrhea virus; remark: listed apart in the source
[11] = system: variety of cytotoxicity tests; experiment: Exploratory cytotoxicity tests of mUrd (bone marrow, mitochondrial function, incorporation into nucleic acid); type: cell-based; conditions: high concentrations
HepG2 cells [12] = conditions: 10 μM; cell type not stated; cited from earlier work

Sequence of human DNA polymerase α (P09884 whole entry): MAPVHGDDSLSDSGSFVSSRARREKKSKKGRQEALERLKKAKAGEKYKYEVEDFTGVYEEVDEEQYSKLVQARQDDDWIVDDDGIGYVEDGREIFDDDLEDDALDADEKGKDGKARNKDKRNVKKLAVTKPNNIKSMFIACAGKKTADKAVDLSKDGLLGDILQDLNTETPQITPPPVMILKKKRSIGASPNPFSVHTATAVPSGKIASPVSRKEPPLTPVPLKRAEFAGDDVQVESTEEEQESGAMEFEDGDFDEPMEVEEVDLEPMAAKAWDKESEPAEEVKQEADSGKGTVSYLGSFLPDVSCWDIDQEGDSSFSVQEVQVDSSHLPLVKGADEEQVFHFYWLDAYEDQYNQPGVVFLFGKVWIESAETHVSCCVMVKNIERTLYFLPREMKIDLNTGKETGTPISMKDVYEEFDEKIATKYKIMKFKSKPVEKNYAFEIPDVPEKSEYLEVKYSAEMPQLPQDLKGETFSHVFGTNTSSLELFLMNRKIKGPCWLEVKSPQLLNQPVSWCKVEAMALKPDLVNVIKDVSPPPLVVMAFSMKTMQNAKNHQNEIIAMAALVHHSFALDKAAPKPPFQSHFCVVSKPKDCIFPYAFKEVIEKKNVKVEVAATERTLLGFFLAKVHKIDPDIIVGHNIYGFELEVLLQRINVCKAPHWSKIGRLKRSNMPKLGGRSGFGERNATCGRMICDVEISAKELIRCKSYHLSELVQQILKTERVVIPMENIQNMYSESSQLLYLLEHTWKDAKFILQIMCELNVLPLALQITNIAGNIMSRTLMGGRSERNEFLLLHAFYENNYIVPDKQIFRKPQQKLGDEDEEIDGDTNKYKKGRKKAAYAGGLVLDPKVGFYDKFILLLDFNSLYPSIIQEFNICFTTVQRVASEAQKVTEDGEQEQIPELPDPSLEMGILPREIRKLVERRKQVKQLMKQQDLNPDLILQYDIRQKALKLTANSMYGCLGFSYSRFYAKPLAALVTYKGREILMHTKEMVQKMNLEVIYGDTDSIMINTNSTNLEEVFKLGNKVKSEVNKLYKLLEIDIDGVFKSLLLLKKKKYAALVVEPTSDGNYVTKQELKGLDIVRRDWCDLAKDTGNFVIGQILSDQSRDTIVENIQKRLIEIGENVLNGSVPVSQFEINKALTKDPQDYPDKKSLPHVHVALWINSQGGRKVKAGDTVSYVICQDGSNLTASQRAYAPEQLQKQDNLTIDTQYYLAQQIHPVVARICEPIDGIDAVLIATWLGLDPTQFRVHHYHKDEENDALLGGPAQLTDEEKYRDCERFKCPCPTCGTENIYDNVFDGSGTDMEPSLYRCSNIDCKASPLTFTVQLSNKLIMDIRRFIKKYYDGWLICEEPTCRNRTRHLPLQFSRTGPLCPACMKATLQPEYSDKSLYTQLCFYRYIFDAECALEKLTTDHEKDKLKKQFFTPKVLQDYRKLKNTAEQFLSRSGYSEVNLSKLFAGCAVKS

Molecule `Cc1c2oc3c(C)ccc(C(=O)N[C@@H]4C(=O)N[C@H](C(C)C)C(=O)N5CCC[C@H]5C(=O)N(C)CC(=O)N(C)[C@@H](C(C)C)C(=O)O[C@@H]4C)c3nc-2c(C(=O)N[C@@H]2C(=O)N[C@H](C(C)C)C(=O)N3CCC[C@H]3C(=O)N(C)CC(=O)N(C)[C@@H](C(C)C)C(=O)O[C@@H]2C)c(N)c1=O` [Act. D, actinomycin D] (I: T[dV]P[Sar][NMeV] / II: T[dV]P[Sar][NMeV]; ester I:1-I:C, II:1-II:C; linker I:N-II:N via Actinocin(9to1)) has an IC50 (human DNA polymerase γ) of 15.5 ± 4 µM, an IC50 (human DNA polymerase α) of 5.8 ± 3.1 µM and an IC50 (human DNA polymerase β) of 7.9 ± 3 µM.

In the case of `Nc1ccn([C@H]2CC[C@@H](COP(=O)(O)OP(=O)(O)OP(=O)(O)O)O2)c(=O)n1` [ddC-TP], the IC50 (human DNA polymerase γ) is reported as 2.7 ± 1 µM, the IC50 (human DNA polymerase α) is reported as 78 ± 23.4 µM and the IC50 (human DNA polymerase β) is reported as 4.8 ± 1 µM.

For `NC(=O)c1ncn([C@@H]2O[C@H](CO)[C@@H](O)[C@H]2O)n1` [ribavirin, 1-β-D-ribofuranosyl-1-1,2,4-triazole-3-carboxamide], the “Incorporated drug amount, DNA” value (HepG2 cells [1]; 10 μM [3H] drug, 30 hours) was 0.0120^b pmole/μg DNA, the “Incorporated drug amount, RNA” value (HepG2 cells [1]; 10 μM [3H] drug, 30 hours) was 0.0132^c pmole/μg RNA and the “incorporation into both DNA and RNA, level relative to mCyd” value (HepG2 cells [1]; higher than mCyd) was 10 fold. The CC50 [2] was 36 µM, the “effect on serum levels of HCV-RNA” value (HCV) was “does not lower serum levels of HCV-RNA” and the “patients with serum amino transferase levels reduced to normal” value (HCV) was 40%.

In the case of interferon alpha 2b, the “reduction in viral titer” value [3] is reported as 0.1 log, the “sensitivity of the mutant relative to wild-type” value (S405T mutant BVDV) is reported as about 40 fold and the “reduction in virus titer” value [4] is reported as “approximately 0.1 log10”. For the same molecule, the EC50 (BVDV [5]) was 2.6 IU per ml and the viral reduction (BVDV [5]; even at 1000 IU per ml) was at most 2 logs.

For `C[C@@]1(O)[C@H](O)[C@@H](CO)O[C@H]1n1ccc(=O)[nH]c1=O` [Compound N, β-D-2′-C-methyl-uracil], the EC50 (REO-1) was over 100 µM, the “mUrd in sera samples” value [6] was “No mUrd was detected” and the “potency against BVDV relative to mCyd” value (BVDV [7]) was “about 10 fold”. It also gave a CC50 [8] of over 100 µM, an EC50 (Sb-1) of 55 µM and an EC50 (DENV 2) of at least 100 µM. The EC50 (WNV) was 80 µM, the EC50 (CVB-2) was over 100 µM and the “antiviral activity against a wide spectrum of other viruses” value [9] was “essentially no antiviral activity”. The EC50 (YFV) was 100 µM, the EC50 (BVDV [10]) was 18 µM and the “result in cytotoxicity tests” value [11] was “negative”.

In the case of `O=c1[nH]c(=O)n([C@@H]2O[C@H](CO)[C@@H](O)[C@@H]2F)cc1I` [FIAU, 1,-2′-deoxy-2′-fluoro-1-β-D-arabinofuranosyl-5-iodo-uracil], the “increase in lactic acid production over control cells” value (HepG2 cells [12]) is given as 100%.
